# Laboratory results taken from patent US20250090510A1, “eIF4G1-eIF1 INHIBITORS AND USE THEREOF” (YEDA RESEARCH AND DEVELOPMENT CO. LTD., priority 2022, published 2025).
# Read-outs that look alike come from different tables or passages of the source.
# Legend:
# eIF1-eIF4G1 interaction = molecular target: T1, eIF1-eIF4G1 interaction (Homo sapiens, UniProt Q04637); experiment: GST pull down of His-eIF1 with GST-eIF4G1; format: binding; conditions: GST-eIF4G1 (aa 675-725) with His-eIF1, vs DMSO
# T1 construct: GST-eIF4G1 (aa 675-725) was incubated with His-eIF1; made in house; host or cells: His-eIF1: E. coli BL21
# T1 sequence (Q04637 675-725): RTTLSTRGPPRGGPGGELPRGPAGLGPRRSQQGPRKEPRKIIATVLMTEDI
# Description: FIGS. 1A-G: Identification and initial characterization of eIF1-eIF4G1 inhibitors using a high-throughput drug screen (HTS). (1A) A flowchart describing the steps of the recombinant eIF1-eIF4G1 split-RL HTS. (1B) Selection of drugs that inhibit leaky scanning. HEK293T cells were transfected with a short 5′UTR bearing GFP reporter gene described on the top, treated with the indicated HTS hits, and then analyzed by western blot with GFP antibody. US and DS denote upstream and downstream AUG initiation sites, respectively. (1C) A graph showing the change in the ratio of the upstream and downstream AUG following treatment with the indicated drugs. (1D) The chemical structure of the eIF1-eIF4G1 inhibitors, i14G1-10 and i14G1-12. (1E) His-tagged eIF4G1 and His-tagged eIF1 were expressed in BL21 bacteria and purified using nickel NTA beads. Purified His-tagged eIF4G1 and His-tagged eIF1 were incubated with the indicated doses of either i14G1-10 (0-256 μM) or i14G1-12 (0-256 μM) for 5 minutes, followed by fluorescence measurement. For eIF4G1 excitation was at 280 nm and emission was at 350 nm. For eIF1 excitation was at 274 nm and emission was at 304 nm. The data shown represent three independent replicates. IC50 was calculated using Graphpad prism 9. (1F-1G) Western blots of GST pull down. […]
# [1] = tested on: HEK293T cells with eIF4G1 knockdown; experiment: Puromycin labeling after control or eIF4G1 siRNA; format: cell-based, human; conditions: for IC50: Homo sapiens, HEK-293T, 48 h, 3 h treatment, read-out: IC-50, puromycin labeling
# Experimental: FIGS. 3A-F: i14G1-10 and i14G1-12 inhibit mRNA translation and sensitize cell survival of eIF4G1 and eIF1 depleted cells. (3A) In-vitro translation using rabbit reticulocyte lysate which was pre-incubated with different concentrations of i14G1-10 or i14G1-12 for 10 minutes followed by the addition of capped firefly luciferase mRNA. After 90 minutes at 30° C., the luminescence signal was measured and the IC50 was calculated. The data represents mean±SEM of 6 independent repeats. (3B) HEK293T cells were treated with DMSO (vehicle control), and sub-cytotoxic concentrations of i14G1-10 (20 μM) and i14G1-12 (10 μM) for 3h. Cell lysates were then subjected to sucrose gradient sedimentation to obtain polysome profiles. (3C) HEK293T cells were treated with the indicated concentrations of i14G1-10 and i14G-12 for 3 h, followed by the addition of puromycin (10 μg/ml) for 5 minutes, after which cells were lysed and analyzed by western blot using an anti-puromycin antibody and anti-GAPDH antibody that serves as a loading control. The graph represents the mean±SEM chemiluminescence signal intensity of puromycin labeling normalized to GAPDH of 3 independent experiments. The calculated IC-50 is shown. (3D) HEK293T cells were transfected with either control or eIF4G1 siRNA in the absence or presence of eIF4G1 expression plasmid. As the eIF4G1 siRNA pool is directed against the 3′UTR, which is absent from the eIF4G1 expression plasmid, the exogenous eIF4G1 is resistant to the siRNA. 48 h after transfection, cells were treated with the indicated concentrations of i14G1-10 and i14G-12 for 3 h, followed by a 5 minutes puromycin pulse as described in 3C. The graph represents the mean±SEM chemiluminescence signal intensity of puromycin labeling normalized to GAPDH of 3 independent experiments. The calculated IC-50 is shown. (3E) The graphs represent cell viability of the indicated cell lines in the presence of increasing concentrations of i14G1-10 and i14G1, analyzed by Luminescent Cell Viability Assay. […]
# A549 = experiment: CellTiter-Glo luminescent cell viability assay; format: cell-based; conditions: lung cancer (A549), increasing concentrations, 48 h
# Experimental: (§1) FIGS. 3A-F: i14G1-10 and i14G1-12 inhibit mRNA translation and sensitize cell survival of eIF4G1 and eIF1 depleted cells. (3A) In-vitro translation using rabbit reticulocyte lysate which was pre-incubated with different concentrations of i14G1-10 or i14G1-12 for 10 minutes followed by the addition of capped firefly luciferase mRNA. After 90 minutes at 30° C., the luminescence signal was measured and the IC50 was calculated. The data represents mean±SEM of 6 independent repeats. (3B) HEK293T cells were treated with DMSO (vehicle control), and sub-cytotoxic concentrations of i14G1-10 (20 μM) and i14G1-12 (10 μM) for 3h. Cell lysates were then subjected to sucrose gradient sedimentation to obtain polysome profiles. (3C) HEK293T cells were treated with the indicated concentrations of i14G1-10 and i14G-12 for 3 h, followed by the addition of puromycin (10 μg/ml) for 5 minutes, after which cells were lysed and analyzed by western blot using an anti-puromycin antibody and anti-GAPDH antibody that serves as a loading control. The graph represents the mean±SEM chemiluminescence signal intensity of puromycin labeling normalized to GAPDH of 3 independent experiments. The calculated IC-50 is shown. (3D) HEK293T cells were transfected with either control or eIF4G1 siRNA in the absence or presence of eIF4G1 expression plasmid. As the eIF4G1 siRNA pool is directed against the 3′UTR, which is absent from the eIF4G1 expression plasmid, the exogenous eIF4G1 is resistant to the siRNA. 48 h after transfection, cells were treated with the indicated concentrations of i14G1-10 and i14G-12 for 3 h, followed by a 5 minutes puromycin pulse as described in 3C. The graph represents the mean±SEM chemiluminescence signal intensity of puromycin labeling normalized to GAPDH of 3 independent experiments. The calculated IC-50 is shown. (3E) The graphs represent cell viability of the indicated cell lines in the presence of increasing concentrations of i14G1-10 and i14G1, analyzed by Luminescent Cell Viability Assay. (3F) Pie charts showing the cell cycle distribution of HEK293T cells treated with DMSO, i14G1-10 and i14G1-12.
# (§2) The indicated cell lines in 96-well plates were treated with increasing concentrations of i14G1-10 and i14G1-12. After 48 h, cells were subjected to cell viability measurement using CellTiter-Glo Luminescent Assay (Cat no. G7571, Promega).
# (§3) This was true in breast cancer (MCF7), lung cancer (A549), colorectal cancer (HCT116), ovarian cancer (OVCAR8) and in a bone cancer sarcoma cell line (U20S). To examine whether the growth defect is associated with cell cycle progression, control and drug treated cells were subjected to DNA staining by propidium iodide and then a flow cytometry analysis to determine their distribution in the sub-G1 (dead cells), G1, S and G2/M phases of the cell cycle.
# HCT116 = experiment: CellTiter-Glo luminescent cell viability assay; format: cell-based; conditions: colorectal cancer (HCT116), increasing concentrations, 48 h
# Experimental: as §1, §2, §3
# MCF7 = experiment: CellTiter-Glo luminescent cell viability assay; format: cell-based; conditions: breast cancer (MCF7), increasing concentrations, 48 h
# Experimental: as §1, §2, §3
# OVCAR8 = experiment: CellTiter-Glo luminescent cell viability assay; format: cell-based; conditions: ovarian cancer (OVCAR8), increasing concentrations, 48 h
# Experimental: as §1, §2, §3
# U20S = experiment: CellTiter-Glo luminescent cell viability assay; format: cell-based; conditions: bone cancer sarcoma cell line (U20S), increasing concentrations, 48 h
# Experimental: as §1, §2, §3
smiles,measurement,setting,value
O=C(/C=C/Sc1ccc(C(F)(F)F)cn1)c1ccccc1 [i14G1-10],association of eIF1 with eIF4G1,eIF1-eIF4G1 interaction,decrease in the association of eIF1 with eIF4G1
same,inhibition of translation upon depletion of eIF4G1,[1]; eIF4G1 siRNA vs control siRNA,enhanced
same,growth/survival,A549,inhibited the growth/survival
same,growth/survival,HCT116,inhibited the growth/survival
same,growth/survival,MCF7,inhibited the growth/survival
same,growth/survival,OVCAR8,inhibited the growth/survival
same,growth/survival,U20S,inhibited the growth/survival
Cn1ccnc1S/C(=C/C=C(C#N)C#N)c1ccc(Cl)cc1 [i14G1-12],association of eIF1 with eIF4G1,eIF1-eIF4G1 interaction,decrease in the association of eIF1 with eIF4G1
same,IC50,[1]; control siRNA,5.65 µM
same,IC50,[1]; eIF4G1 siRNA knockdown,80 µM
same,growth/survival,A549,inhibited the growth/survival
same,growth/survival,HCT116,inhibited the growth/survival
same,growth/survival,MCF7,inhibited the growth/survival
same,growth/survival,OVCAR8,inhibited the growth/survival
same,growth/survival,U20S,inhibited the growth/survival
